Laboratory results taken from US4395969A (priority 1981, dated 1983).

Key:
[1] = system: coho salmon; test: Long-term static bioassay, coho salmon; details: 64 days, 10 C, individually
[2] = system: bridgelip sucker; test: Selectivity and safety indices of salmonids versus the bridgelip sucker; format: in vivo, Catastomus columbianus; details: 96 h
Text: (§1) Delineation bioassays determined primarily the LC50 and LC100 of sucker and stickleback and the LC0 and LC50 of salmonids.
(§2) The statistical LC1, LC50, and LC99 were interpolated and/or extrapolated using probit graph paper to approximate the LC0, LC50, and LC100 when the latter set of values was not closely determined by single concentrations in a series.
(§3) The approximate LC50 and LC100 of the target fishes (threespine and brook sticklebacks and bridgelip and white suckers) are tabulated in Table 1. The 96-hour selectivity and safety indices of selected species of salmonids versus the three-spine stickleback are tabulated in Table 3.
(§4) Threespine stickleback, brook stickleback, bridgelip sucker, white sucker, chinook salmon, coho salmon, sockeye salmon, kokanee, Kamloops trout, cutthroat trout, and brook trout were treated with various concentrations of 2, 2, 2, 1-tetrachloroethyl diethyl phosphate and at various temperatures to determine approximate selectivity and safety indices. The approximate LC50 and LC100 of the target fishes (threespine and brook sticklebacks and bridgelip and white suckers) are tabulated in Table 5. The 96-hour selectivity and safety indices of selected species of salmonids versus the threespine stickleback are tabulated in Table 7.

[3] = system: suckers; test: Control of suckers in 24-hour applications, usable concentration; format: in vivo
Text: For field applications the concentration of the dichloro- and tetrachloro-compounds would vary with water quality--mainly with regard to water temperature and hydrogen ion concentrations. Generally, treated areas would contain water low in dissolved solids and a pH of 7 to 7.5. The activity of the chemicals would then be essentially similar to that determined in our tests using river water. For the treatment of rivers and shorelines of lakes the concentrations of the dichloro- and tetrachloro-compounds that would be used would be those that would kill stickleback or suckers in 12 to 24 hours. The information above, relating to Examples 1 and 12, substantiates improvement in fish culture by the addition of dichloroethyl or dichlorovinyl diethyl phosphate to an aqueous habitat at a concentration in water ranging between 0.1 and 10 mg/l. […] The information above, relating to Example 2, substantiates improvement in fish culture by the addition of tetrachloroethyl diethyl phosphate to an aqueous habitat at a concentration in water ranging between 4 and 80 μg/l.

[4] = system: brook stickleback; test: Static bioassay, lethal concentration to brook stickleback; format: in vivo, Eucalia inconstans; details: 15 C
Description: (§5) Bioassays utilized water from an artesian well at Moscow, Idaho and from the headwaters of the Palouse River, also in Idaho. The chemical characteristics of the artesian water were analyzed as follows: Total hardness 67-120 mg/l; total dissolved solids, 160-175 mg/l; and pH 7.1. The chemistry of the Palouse River water was analyzed as follows: total hardness 17 mg/l; methyl orange alkalinity 26 mg/l; total dissolved solids, 32 mg/l and pH, 7.0.
(§6) Fish were acclimated to test temperatures, usually at 5, 7.5, 10, 15 and 20 degrees Celsius (C), at least 60 hours before exposure to toxicants. For fish and crayfish four water baths regulated the temperature of assay aquaria. Each water bath contained a battery of 20 identical 19-liter clear glass containers or 11.4-liter plastic aquaria lined with disposable polyethylene bags and covered with Plexiglass lids to reduce evaporation. For larger fish and large numbers of fish the bioassays were made in two temperature controlled rooms that contained a series of 700-liter circular fiberglass vats and a series of 76- and 91-liter plastic containers.
(§7) Standard bioassay techniques were used in sorting fish and conducting the tests. Fish were placed in aerated test aquaria overnight to permit fish to recover from stress due to handling and to deprive them of food. The average load varied but most bioassays were conducted with about 1 g of fish per liter of water.
(§8) Aliquots of organophosphates were dissolved in ethanol and dispensed to the aquaria to provide concentrations suitable for obtaining the LC0 and LC50 of desirable fish and the LC50 and LC100 of target fish. Control fish were conditioned in the same manner as the test fish, but no chemical was added to the control vessels during the assays. After the addition of a chemical, observations were made mainly at 3, 6, 12, 24, 48, 96, and 192 h. The weight and fork length of fish were obtained when fishes were sacrificed.
as §1, §2, §3, §4

[5] = system: Salmonella, five strains; test: Salmonella standard plate test for mutagens/carcinogens; details: 0.5, 5, 50, 500, and 5000 mg/l
[6] = in vivo; details: chinook salmon
[7] = system: cutthroat trout; test: Static bioassay, lethal concentration to cutthroat trout; format: in vivo, S. clarki
Description: as §5, §6, §7, §8, §1, §2, §3, §4

[8] = as above; format: in vivo, S. clarki; details: cutthroat trout, water
Description: as §5, §6, §7, §8, §1, §2, §3, §4

[9] = system: threespine stickleback; test: Long-term static bioassay, threespine stickleback; details: 32 days, 10 C, individually
[10] = system: chinook salmon; test: Deactivation with potassium permanganate, mortality of chinook salmon; format: in vivo, O. tschawytscha

With `CCOP(=O)(OC=C(Cl)Cl)OCC` [2,2-dichlorovinyl diethyl phosphate] the mortality ([1]; 300 μg/l) was “essentially no mortality”, the mortality ([1]; 300 μg/l, listed as 2, 2-dichlorovinyl diethyl phosphate) was “no significant mortality” and the “Safety index (LC0/LC100)” value ([2]; Kamloops, 5 C) was 7. The “Selectivity index (LC50/LC50)” value ([2]; Kamloops, 5 C) was greater than 34, the “Safety index (LC0/LC100)” value ([2]; Kamloops, 10 C) was 20 and the “Selectivity index (LC50/LC50)” value ([2]; Kamloops, 10 C) was 67. The “Safety index (LC0/LC100)” value ([2]; Kamloops, 15 C) was 10, the “Selectivity index (LC50/LC50)” value ([2]; Kamloops, 15 C) was 70 and the “Safety index (LC0/LC100)” value ([2]; brook trout, 15 C) was 20. The “Selectivity index (LC50/LC50)” value ([2]; brook trout, 15 C) was 66, the “Safety index (LC0/LC100)” value ([2]; chinook, 10 C) was 60 and the “Selectivity index (LC50/LC50)” value ([2]; chinook, 10 C) was 87. For the same molecule, the “Safety index (LC0/LC100)” value ([2]; chinook, 15 C) was 27, the “Selectivity index (LC50/LC50)” value ([2]; chinook, 15 C) was 68 and the “Safety index (LC0/LC100)” value ([2]; cutthroat, 10 C) was 40. The “Selectivity index (LC50/LC50)” value ([2]; cutthroat, 10 C) was greater than 60, the “Safety index (LC0/LC100)” value ([2]; cutthroat, 15 C) was 20 and the “Selectivity index (LC50/LC50)” value ([2]; cutthroat, 15 C) was 50. For the same molecule, the “Safety index (LC0/LC100)” value ([2]; sockeye, 7.5 C) was 30, the “Selectivity index (LC50/LC50)” value ([2]; sockeye, 7.5 C) was 100 and the “Safety index (LC0/LC100)” value ([2]; sockeye, 10 C) was 30. The “Selectivity index (LC50/LC50)” value ([2]; sockeye, 10 C) was 75, the “Safety index (LC0/LC100)” value ([2]; steelhead, 5 C) was 13 and the “Selectivity index (LC50/LC50)” value ([2]; steelhead, 5 C) was 47. The “recommended safe and effective concentration” value ([3]; 10 to 15 C, river water tests) was 1.0 mg/L, the LC50 ([4]; 24 h) was 0.8 µg/mL and the LC100 ([4]; 24 h) was 1.0 mg/L. It also gave an LC50 ([4]; 48 h) of 0.4 µg/mL, an LC100 ([4]; 48 h) of 0.6 mg/L and an LC50 ([4]; 96 h) of 0.4 µg/mL. For the same molecule, the LC100 ([4]; 96 h) was 0.6 mg/L, the LC50 ([4]; 192 h) was 0.3 µg/mL and the LC100 ([4]; 192 h) was 0.6 mg/L. For the same molecule, the mutagenic activity [5] was “no mutagenic activity”, the LC50 at 192 h [6] was 5 µg/mL and the LC0 ([7]; 10 C, 96 h) was 4000 µg/L. It also gave an LC0 ([7]; 15 C, 48 h) of 4000 µg/L, an LC0 ([7]; 15 C, 96 h) of 2000 µg/L and an LC0 ([7]; 15 C, 192 h) of 1000 µg/L. For the same molecule, the LC50 at 192 h ([8]; 10 C) was 4.8 µg/mL, the LC50 at 48 h ([8]; 15 C) was 5.3 µg/mL and the LC50 at 96 h ([8]; 15 C) was 2.5 µg/mL. The LC50 at 192 h ([8]; 15 C) was 1.8 µg/mL, the mortality ([9]; 600 μg/l) was 65% and the “deactivation by 1 equivalent weight of permanganate” value ([10]; 15 C) was “about 25%”. For the same molecule, the “effect of potassium permanganate on mortality” value ([10]; excessive concentrations of 2 Cl) was “delayed mortality”.
For `CCOP(=O)(OCC)OC(Cl)C(Cl)(Cl)Cl` (stereo not shown) [2,2,2,1-tetrachloroethyl diethyl phosphate], the mortality ([1]; 6 μg/l (or less)) was “Essentially no mortality”, the mortality ([1]; 6 μg/l (or less), listed as 2, 2, 2, 1-tetrachloroethyl diethyl phosphate) was “no significant mortality” and the “Safety index (LC0/LC100)” value ([2]; Kamloops, 5 C) was 2.4. The “Selectivity index (LC50/LC50)” value ([2]; Kamloops, 5 C) was 4.3, the “Safety index (LC0/LC100)” value ([2]; Kamloops, 10 C) was 1.8 and the “Selectivity index (LC50/LC50)” value ([2]; Kamloops, 10 C) was 6.0. The “Safety index (LC0/LC100)” value ([2]; Kamloops, 15 C) was 2.1, the “Selectivity index (LC50/LC50)” value ([2]; Kamloops, 15 C) was 6.0 and the “Safety index (LC0/LC100)” value ([2]; brook trout, 15 C) was 1.4. For the same molecule, the “Selectivity index (LC50/LC50)” value ([2]; brook trout, 15 C) was 5.0, the “Safety index (LC0/LC100)” value ([2]; chinook, 10 C) was 2.4 and the “Selectivity index (LC50/LC50)” value ([2]; chinook, 10 C) was 6.3. For the same molecule, the “Safety index (LC0/LC100)” value ([2]; coho, 10 C) was 1.7, the “Selectivity index (LC50/LC50)” value ([2]; coho, 10 C) was 5.8 and the “Safety index (LC0/LC100)” value ([2]; cutthroat, 10 C) was 1.7. The “Selectivity index (LC50/LC50)” value ([2]; cutthroat, 10 C) was 4.8, the “Safety index (LC0/LC100)” value ([2]; cutthroat, 15 C) was 2.0 and the “Selectivity index (LC50/LC50)” value ([2]; cutthroat, 15 C) was 4.5. The “Safety index (LC0/LC100)” value ([2]; kokanee, 15 C) was 2.9, the “Selectivity index (LC50/LC50)” value ([2]; kokanee, 15 C) was 7.5 and the “Safety index (LC0/LC100)” value ([2]; sockeye, 10 C) was 1.4. For the same molecule, the “Selectivity index (LC50/LC50)” value ([2]; sockeye, 10 C) was 7.5, the “estimated LC100 of the sucker” value ([3]; relative to 6 to 4 μg/l for stickleback, 10 C) was “essentially the same” and the LC50 ([4]; 24 h) was 0.006 µg/mL. It also gave an LC100 ([4]; 24 h) of 0.01 mg/L, an LC100 ([4]; 48 h) of 0.008 mg/L and an LC100 ([4]; 96 h) of 0.006 mg/L. For the same molecule, the mutagenic activity [5] was “no mutagenic activity”, the LC50 at 48 h [6] was 0.035 µg/mL and the LC50 at 96 h [6] was 0.025 µg/mL. The LC50 at 192 h [6] was 0.025 µg/mL, the LC0 ([7]; 10 C, 96 h) was 14 µg/L and the LC0 ([7]; 10 C, 192 h) was 14 µg/L. It also gave an LC0 ([7]; 15 C, 48 h) of 14 µg/L, an LC0 ([7]; 15 C, 96 h) of 14 µg/L and an LC0 ([7]; 15 C, 192 h) of 14 µg/L. For the same molecule, the LC50 at 96 h ([8]; 10 C) was 0.019 µg/mL, the LC50 at 192 h ([8]; 10 C) was 0.017 µg/mL and the LC50 at 48 h ([8]; 15 C) was 0.022 µg/mL. For the same molecule, the LC50 at 96 h ([8]; 15 C) was 0.018 µg/mL, the LC50 at 192 h ([8]; 15 C) was 0.018 µg/mL and the mortality ([9]; 4 μg/l) was 100%.
